Measured values: PubChem BioAssay AID1940 (Sanford-Burnham Center for Chemical Genomics, 2009)

System: mouse liver microsomes, LC/MS/MS parent remaining, 60 min
Assay: metabolic stability in mouse liver microsomes, late-stage follow-up, ADME assay, biochemical, LC/MS/MS, with and without NADPH (AID 1940)
Conditions: at 1 µM, stronger effect = lower value

percent remaining: 0.56% | percent remaining (measured here: no NADPH control): 61.2%
Compound: CC1Cc2cc(S(=O)(=O)N3CCN(c4ccc(Cl)cc4)CC3)ccc2N1C(=O)C1CC1 (configuration not stated)
